Key:
Details in all cases: exposure time: 72 h
[1] = test system: E13 (patient-derived glioblastoma stem cells of classical subtype); assay: surviving fraction (nuclei count normalised to DMSO); higher = more cells surviving (less toxic)
[2] = test system: E21 (patient-derived glioblastoma stem cells of mesenchymal subtype); assay: as above
[3] = test system: E28 (patient-derived glioblastoma stem cells of classical subtype); assay: as above
[4] = test system: E31 (patient-derived glioblastoma stem cells of proneural subtype); assay: as above
[5] = test system: E34 (patient-derived glioblastoma stem cells of proneural subtype); assay: as above
[6] = test system: E57 (patient-derived glioblastoma stem cells of mesenchymal subtype); assay: as above
[7] = test system: FT3469 (normal neural stem cell line); assay: as above
[8] = test system: E13; assay: phenotypic distance (Euclidean, principal components) from DMSO controls (arbitrary units); higher = stronger morphological change
[9] = test system: E21; assay: as above
[10] = test system: E28; assay: as above
[11] = test system: E31; assay: as above
[12] = test system: E34; assay: as above
[13] = test system: E57; assay: as above
[14] = test system: FT3469; assay: as above
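Throughout, for phenotypic distance (Euclidean, principal components) from DMSO controls: cell Painting imaging in 384-well plates, CellProfiler features reduced to at least 20 principal components, Euclidean distance versus same-plate DMSO vehicle wells (0.1% v/v), median over six images per well.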
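Throughout, for surviving fraction (nuclei count normalised to DMSO): nuclei counted by high-content imaging of Hoechst-stained cells in laminin-coated 384-well plates, relative to 0.1% DMSO vehicle wells, with staurosporine as cell-death control.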

COC(=O)Nc1nc2cc(Sc3ccccc3)ccc2[nH]1 [Fenbendazole]
Details	phenotypic distance	surviving fraction
[1], 4.1 nM	–	1.02
[1], 12.3 nM	–	1.07
[1], 37 nM	–	1.05
[1], 111.1 nM	–	0.86
[1], 333.3 nM	–	0.548
[1], 1000 nM	–	0.179
[1], 3000 nM	–	0.236
[2], 4.1 nM	–	1.07
[2], 12.3 nM	–	1.02
[2], 37 nM	–	0.982
[2], 111.1 nM	–	0.874
[2], 333.3 nM	–	0.941
[2], 1000 nM	–	0.105
[2], 3000 nM	–	0.122
[3], 4.1 nM	–	1
[3], 12.3 nM	–	1.09
[3], 37 nM	–	1.1
[3], 111.1 nM	–	0.927
[3], 333.3 nM	–	1.07
[3], 1000 nM	–	0.359
[3], 3000 nM	–	0.304
[4], 4.1 nM	–	1.12
[4], 12.3 nM	–	0.906
[4], 37 nM	–	0.836
[4], 111.1 nM	–	0.749
[4], 333.3 nM	–	0.526
[4], 1000 nM	–	0.0787
[4], 3000 nM	–	0.0818
[5], 4.1 nM	–	1.06
[5], 12.3 nM	–	0.988
[5], 37 nM	–	0.935
[5], 111.1 nM	–	1.01
[5], 333.3 nM	–	0.795
[5], 1000 nM	–	0.361
[5], 3000 nM	–	0.349
[6], 4.1 nM	–	1
[6], 12.3 nM	–	1.05
[6], 37 nM	–	1.06
[6], 111.1 nM	–	0.964
[6], 333.3 nM	–	0.841
[6], 1000 nM	–	0.0618
[6], 3000 nM	–	0.0799
[7], 4.1 nM	–	1.03
[7], 12.3 nM	–	1.1
[7], 37 nM	–	0.864
[7], 111.1 nM	–	1.02
[7], 333.3 nM	–	0.864
[7], 1000 nM	–	0.511
[7], 3000 nM	–	0.622
[8], 4.1 nM	0.824	–
[8], 12.3 nM	0.763	–
[8], 37 nM	0.771	–
[8], 111.1 nM	1.88	–
[8], 333.3 nM	3.45	–
[8], 1000 nM	6.64	–
[8], 3000 nM	6.13	–
[9], 4.1 nM	0.689	–
[9], 12.3 nM	0.58	–
[9], 37 nM	1.03	–
[9], 111.1 nM	1.63	–
[9], 333.3 nM	2.19	–
[9], 1000 nM	7.35	–
[9], 3000 nM	5.94	–
[10], 4.1 nM	0.869	–
[10], 12.3 nM	0.342	–
[10], 37 nM	0.965	–
[10], 111.1 nM	1.03	–
[10], 333.3 nM	1.48	–
[10], 1000 nM	3.39	–
[10], 3000 nM	3.63	–
[11], 4.1 nM	0.332	–
[11], 12.3 nM	0.747	–
[11], 37 nM	0.989	–
[11], 111.1 nM	1.13	–
[11], 333.3 nM	1.96	–
[11], 1000 nM	6.33	–
[11], 3000 nM	5.86	–
[12], 4.1 nM	0.744	–
[12], 12.3 nM	0.832	–
[12], 37 nM	0.751	–
[12], 111.1 nM	0.935	–
[12], 333.3 nM	1.56	–
[12], 1000 nM	4.45	–
[12], 3000 nM	5.29	–
[13], 4.1 nM	0.515	–
[13], 12.3 nM	0.484	–
[13], 37 nM	1.23	–
[13], 111.1 nM	1.6	–
[13], 333.3 nM	2.13	–
[13], 1000 nM	4.89	–
[13], 3000 nM	4.66	–
[14], 4.1 nM	0.898	–
[14], 12.3 nM	0.598	–
[14], 37 nM	0.489	–
[14], 111.1 nM	1.42	–
[14], 333.3 nM	1.54	–
[14], 1000 nM	2.9	–
[14], 3000 nM	2.71	–
